# Experimental data: patent publication US20180148418A1, “AMIDO-SUBSTITUTED CYCLOHEXANE DERIVATIVES” (Bayer Pharma Aktiengesellschaft, priority 2015, published 2018)
# Assays:
# TNKS1 = target: T1, TNKS1 (Homo sapiens, UniProt O95271); assay: TNKS1 Assay B (auto-parsylation, [3H]-NAD+ SPA); type: biochemical; settings: 6 nM TNKS1, auto-parsylation, over night at room temperature
# T1 construct: purchased BPS Bioscience, San Diego, USA 80579 (TNKS1 Histone Ribosylation Assay Kit)
# T1 sequence (O95271 1-1327): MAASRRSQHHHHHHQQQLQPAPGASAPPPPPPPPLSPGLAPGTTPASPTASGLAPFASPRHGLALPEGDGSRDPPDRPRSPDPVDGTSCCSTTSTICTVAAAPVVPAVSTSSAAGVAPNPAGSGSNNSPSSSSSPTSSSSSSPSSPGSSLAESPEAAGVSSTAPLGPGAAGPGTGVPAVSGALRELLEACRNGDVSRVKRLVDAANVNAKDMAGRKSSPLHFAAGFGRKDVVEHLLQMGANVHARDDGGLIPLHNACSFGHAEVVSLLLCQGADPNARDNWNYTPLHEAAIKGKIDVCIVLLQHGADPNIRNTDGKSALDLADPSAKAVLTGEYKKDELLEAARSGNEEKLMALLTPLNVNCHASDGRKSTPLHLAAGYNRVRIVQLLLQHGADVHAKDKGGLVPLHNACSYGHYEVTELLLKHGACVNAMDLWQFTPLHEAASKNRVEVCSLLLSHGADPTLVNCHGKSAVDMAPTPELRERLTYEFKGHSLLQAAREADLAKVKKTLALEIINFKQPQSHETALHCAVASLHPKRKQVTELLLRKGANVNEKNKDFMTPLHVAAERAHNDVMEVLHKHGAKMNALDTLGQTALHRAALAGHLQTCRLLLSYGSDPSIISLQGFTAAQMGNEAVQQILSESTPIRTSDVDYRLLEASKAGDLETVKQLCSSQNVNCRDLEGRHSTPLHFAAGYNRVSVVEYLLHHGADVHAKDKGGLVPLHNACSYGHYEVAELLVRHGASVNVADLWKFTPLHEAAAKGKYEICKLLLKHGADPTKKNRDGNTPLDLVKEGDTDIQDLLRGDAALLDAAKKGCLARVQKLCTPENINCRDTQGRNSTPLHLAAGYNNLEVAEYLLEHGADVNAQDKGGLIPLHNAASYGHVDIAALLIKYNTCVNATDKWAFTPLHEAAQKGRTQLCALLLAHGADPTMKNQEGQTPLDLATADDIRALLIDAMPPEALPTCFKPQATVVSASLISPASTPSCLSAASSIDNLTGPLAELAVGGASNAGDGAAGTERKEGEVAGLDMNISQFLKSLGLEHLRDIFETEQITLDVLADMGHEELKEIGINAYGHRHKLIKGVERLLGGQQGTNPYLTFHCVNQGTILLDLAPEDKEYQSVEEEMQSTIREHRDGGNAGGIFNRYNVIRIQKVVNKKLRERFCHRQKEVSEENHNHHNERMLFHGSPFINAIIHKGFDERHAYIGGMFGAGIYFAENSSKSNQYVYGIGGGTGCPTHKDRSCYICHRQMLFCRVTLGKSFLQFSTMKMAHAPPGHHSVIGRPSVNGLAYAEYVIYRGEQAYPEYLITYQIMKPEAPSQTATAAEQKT
# [1] = tested on: HEK293 cells cotransfected with the FOP control vector; assay: HEK293 FOP assay (control reporter with non-functional TCF elements); type: cell-based; settings: Homo sapiens, 16 hours
# How it was run: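 Stable HEK293 line carrying FOP control reporter (randomized non-functional TCF sites, with pcDNA3), Geneticin-selected, plated 24 h before assay. Stimulated with recombinant human Wnt-3a (2500-5 ng/ml) and compounds 50 μM–15 nM (3.16-fold steps) in CAFTY buffer pH 7.4 with 2 mM Ca2+, 0.01% BSA, run parallel to TOP line.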
SMILES,IC50 (TNKS1) [µM],IC50 [1] [µM]
"C[C@]1(C(=O)Nc2ccc(F)cc2Cl)CC[C@@H](NC(=O)c2cnn3cccnc23)CC1 [Example 180, N-{cis-4-[(2-chloro-4-fluorophenyl)carbamoyl]-4-methylcyclohexyl}pyrazolo[1,5-a]pyrimidine-3-carboxamide]",> 10,≥ 50
"CNC(=O)c1[nH]cnc1C(=O)N[C@H]1CC[C@@](C)(C(=O)Nc2ccc(F)cc2Cl)CC1 [Example 181, N^4-{cis-4-[(2-chloro-4-fluorophenyl)carbamoyl]-4-methylcyclohexyl}-N^5-methyl-1H-imidazole-4,5-dicarboxamide]",> 10,24
"CNC(=O)c1nc[nH]c1C(=O)N[C@H]1CC[C@]2(CCN(c3ccc(F)cc3Cl)C2=O)CC1 [Example 182, N^5-[(cis)-2-(2-chloro-4-fluorophenyl)-1-oxo-2-azaspiro[4.5]dec-8-yl]-N^4-methyl-1H-imidazole-4,5-dicarboxamide]",2.2,≥ 50
"CC1CN(C(=O)c2nc[nH]c2C(=O)N[C@H]2CC[C@@]3(CCN(c4ccc(F)cc4Cl)C3=O)CC2)CCS(=O)(=O)C1 (stereo partly drawn) [Example 183, N-[(trans)-2-(2-chloro-4-fluorophenyl)-1-oxo-2-azaspiro[4.5]dec-8-yl]-4-[(6-methyl-1,1-dioxido-1,4-thiazepan-4-yl)carbonyl]-1H-imidazole-5-carboxamide]",0.7,≥ 50
"CN1CC2(CCN(C(=O)c3nc[nH]c3C(=O)N[C@H]3CC[C@@]4(CCN(c5ccc(F)cc5Cl)C4=O)CC3)C2)C1 [Example 184, N-[(trans)-2-(2-chloro-4-fluorophenyl)-1-oxo-2-azaspiro[4.5]dec-8-yl]-4-[(2-methyl-2,6-diazaspiro[3.4]oct-6-yl)carbonyl]-1H-imidazole-5-carboxamide]",0.01,≥ 50
"CN1CC2(C1)CN(C(=O)c1nc[nH]c1C(=O)N[C@H]1CC[C@@]3(CCN(c4ccc(F)cc4Cl)C3=O)CC1)C2 [Example 185, N-[(trans)-2-(2-chloro-4-fluorophenyl)-1-oxo-2-azaspiro[4.5]dec-8-yl]-4-[(6-methyl-2,6-diazaspiro[3.3]hept-2-yl)carbonyl]-1H-imidazole-5-carboxamide]",0.0087,≥ 50
"NC(=O)c1nc[nH]c1C(=O)N[C@H]1CC[C@@]2(CCN(c3ccc(F)cc3Cl)C2=O)CC1 [Example 186, N^5-[(trans)-2-(2-chloro-4-fluorophenyl)-1-oxo-2-azaspiro[4.5]dec-8-yl]-1H-imidazole-4,5-dicarboxamide]",0.018,≥ 50
"CN1CC(NC(=O)c2nc[nH]c2C(=O)N[C@H]2CC[C@@]3(CCN(c4ccc(F)cc4Cl)C3=O)CC2)C1 [Example 187, N^5-[(trans)-2-(2-chloro-4-fluorophenyl)-1-oxo-2-azaspiro[4.5]dec-8-yl]-N^4-(1-methylazetidin-3-yl)-1H-imidazole-4,5-dicarboxamide]",0.012,≥ 50
"O=C(N[C@H]1CC[C@@]2(CCN(c3ccc(F)cc3Cl)C2=O)CC1)c1nc[nH]c1C(=O)NCC(F)(F)F [Example 195, N^4-[(trans)-2-(2-chloro-4-fluorophenyl)-1-oxo-2-azaspiro[4.5]dec-8-yl]-N^5-(2,2,2-trifluoroethyl)-1H-imidazole-4,5-dicarboxamide]",0.011,≥ 50
"CNC(=O)c1nc[nH]c1C(=O)N[C@H]1CC[C@@]2(CCN(c3cc(F)c(F)cc3Cl)C2=O)CC1 [Example 196, N^5-[(trans)-2-(2-chloro-4,5-difluorophenyl)-1-oxo-2-azaspiro[4.5]dec-8-yl]-N^4-methyl-1H-imidazole-4,5-dicarboxamide]",0.0067,35
"CCNC(=O)c1nc[nH]c1C(=O)N[C@H]1CC[C@@]2(CCN(c3cc(F)c(F)cc3Cl)C2=O)CC1 [Example 197, N^5-[(trans)-2-(2-chloro-4,5-difluorophenyl)-1-oxo-2-azaspiro[4.5]dec-8-yl]-N^4-ethyl-1H-imidazole-4,5-dicarboxamide]",0.0045,19
"CC(C)NC(=O)c1nc[nH]c1C(=O)N[C@H]1CC[C@@]2(CCN(c3cc(F)c(F)cc3Cl)C2=O)CC1 [Example 198, N^5-[(trans)-2-(2-chloro-4,5-difluorophenyl)-1-oxo-2-azaspiro[4.5]dec-8-yl]-N^4-(propan-2-yl)-1H-imidazole-4,5-dicarboxamide]",0.008,19
"O=C(NC1CC1)c1nc[nH]c1C(=O)N[C@H]1CC[C@@]2(CCN(c3cc(F)c(F)cc3Cl)C2=O)CC1 [Example 199, N^5-[(trans)-2-(2-chloro-4,5-difluorophenyl)-1-oxo-2-azaspiro[4.5]dec-8-yl]-N^4-cyclopropyl-1H-imidazole-4,5-dicarboxamide]",0.0075,21
"O=C(N[C@H]1CC[C@@]2(CCN(c3cc(F)c(F)cc3Cl)C2=O)CC1)c1[nH]cnc1C(=O)N1CC(F)C1 [Example 200, N-[(trans)-2-(2-chloro-4,5-difluorophenyl)-1-oxo-2-azaspiro[4.5]dec-8-yl]-4-[(3-fluoroazetidin-1-yl)carbonyl]-1H-imidazole-5-carboxamide]",0.0069,30
"O=C(NCC(F)(F)F)c1nc[nH]c1C(=O)N[C@H]1CC[C@@]2(CCN(c3cc(F)c(F)cc3Cl)C2=O)CC1 [Example 201, N^5-[(trans)-2-(2-chloro-4,5-difluorophenyl)-1-oxo-2-azaspiro[4.5]dec-8-yl]-N^4-(2,2,2-trifluoroethyl)-1H-imidazole-4,5-dicarboxamide]",0.0055,22
"COCCNC(=O)c1nc[nH]c1C(=O)N[C@H]1CC[C@@]2(CCN(c3cc(F)c(F)cc3Cl)C2=O)CC1 [Example 202, N^5-[(trans)-2-(2-chloro-4,5-difluorophenyl)-1-oxo-2-azaspiro[4.5]dec-8-yl]-N^4-(2-methoxyethyl)-1H-imidazole-4,5-dicarboxamide]",0.0073,39
"CNC(=O)c1nc[nH]c1C(=O)N[C@H]1CC[C@H](C(=O)N(C)c2ccccc2C)CC1 [Example 203, N^4-methyl-N^5-{trans-4-[methyl(2-methylphenyl)carbamoyl]cyclohexyl}-1H-imidazole-4,5-dicarboxamide]",0.63,≥ 50
"O=C(N[C@H]1CC[C@H](C(=O)Nc2ccc(F)cc2Cl)CC1)c1cnn2ccccc12 [Example 205, N-{trans-4-[(2-chloro-4-fluorophenyl)carbamoyl]cyclohexyl}pyrazolo[1,5-a]pyridine-3-carboxamide]",> 10,25
"O=C(N[C@H]1CC[C@H](C(=O)Nc2ccc(F)cc2Cl)CC1)c1cnc2ccccn12 [Example 206, N-{trans-4-[(2-chloro-4-fluorophenyl)carbamoyl]cyclohexyl}imidazo[1,2-a]pyridine-3-carboxamide]",> 10,25
"Cc1cc(C)n2ncc(C(=O)N[C@H]3CC[C@]4(CCN(c5ccc(F)cc5)C4=O)CC3)c2n1 [Example 208, N-[(cis)-2-(4-fluorophenyl)-1-oxo-2-azaspiro[4.5]dec-8-yl]-5,7-dimethyl pyrazolo[1,5-a]pyrimidine-3-carboxamide]",5.6,≥ 50
"O=C(N[C@H]1CC[C@@]2(CCN(c3ccc(F)cc3)C2=O)CC1)c1cnn2cccnc12 [Example 209, N-[(trans)-2-(4-fluorophenyl)-1-oxo-2-azaspiro[4.5]dec-8-yl]pyrazolo[1,5-a]pyrimidine-3-carboxamide]",1.2,≥ 50
"Cc1cnc2c(C(=O)N[C@H]3CC[C@@]4(CCN(c5ccc(F)cc5)C4=O)CC3)cnn2c1 [Example 210, N-[(trans)-2-(4-fluorophenyl)-1-oxo-2-azaspiro[4.5]dec-8-yl]-6-methylpyrazolo[1,5-a]pyrimidine-3-carboxamide]",0.39,25
